Data as given in patent publication US9018261B2, “Choline salt of an anti-inflammatory substituted cyclobutenedione compound” (Novartis AG, priority 2011, dated 2015).
Counter-ions that a name gives are not always drawn.

What was measured:
[1] = pharmacokinetic study in male beagle dogs (plasma concentrations); conditions: dog, in vivo, 0.3 mg/kg
[2] = oral exposure in male SPRAGUE DAWLEY rats; assay type: in vivo; conditions: dosed at 10 mg/kg to male SPRAGUE DAWLEY rats
Experimental: (§1) The choline salt has also a much improved dissolution rate at pH 1 and oral exposure when dosed at 10 mg/kg to male SPRAGUE DAWLEY® rats compared to the free acid form.

[3] = conversion into free acid form in gastric acidic conditions; assay type: physicochemical
Text: The result of this is poor bioavailability of 6-chloro-3-[2-(1-ethyl-propylamino)-3,4-dioxo-cyclobut-1-enylamino]-2-hydroxy-N-methoxy-N-methyl-benzenesulfonamide.

[4] = hygroscopicity (amount of water absorbed); assay type: physicochemical
Text: Furthermore, the hygroscopicity of the choline salt is much reduced compared with the free acid. The amount of water absorbed by the free acid is 2.4% and 2.8% by weight after 1 day at 80% and 92% humidity, respectively, and the amount of water absorbed by the choline salt is 0.7% and 0.6% by weight after 1 day at 80% and 92% humidity, respectively.

[5] = solubility in simulated gastric fluid; assay type: physicochemical
[6] = dissolution rate at pH 1; assay type: physicochemical
Experimental: as §1

[7] = solubility in aqueous solution at pH 1.0-7.0; assay type: physicochemical; conditions: aqueous buffer, pH 1.0-7.0, as a free acid
Experimental: [drawing 1] is a weakly acidic compound and is practically insoluble in aqueous solution at pH 1.0-7.0 as a free acid (<0.005 mg/ml).

| Structure (SMILES) | systemic exposure after intravenous administration [1] [ng·h/mL] | oral exposure compared to the free acid form [2] | conversion into the free acid form [3] | amount of water absorbed ([4]; after 1 day at 80% humidity) [% by weight] | amount of water absorbed ([4]; after 1 day at 92% humidity) [% by weight] | solubility ([5]; simulated gastric fluid at pH 1.2) [µg/mL] | solubility in simulated gastric fluid compared to other salts ([5]; vs sodium, calcium, N,N-dimethyl-2-aminoethanol and N-(2-hydroxyethyl)pyrrolidine salts) | dissolution rate compared to the free acid form [6] | solubility [7] [µg/mL] |
| --- | --- | --- | --- | --- | --- | --- | --- | --- | --- |
| CCC(CC)Nc1c(Nc2ccc(Cl)c(S(=O)(=O)N(C)OC)c2O)c(=O)c1=O [choline salt, 6-chloro-3-[2-(1-ethyl-propylamino)-3,4-dioxo-cyclobut-1-enylamino]-2-hydroxy-N-methoxy-N-methyl-benzenesulfonamide choline] | 912 ± 126 | much improved | readily converts | 0.7 | 0.6 | 8020 | significantly improved | much improved | – |
| CCC(CC)Nc1c(Nc2ccc(Cl)c(S(=O)(=O)N(C)OC)c2O)c(=O)c1=O [free acid, 6-chloro-3-[2-(1-ethyl-propylamino)-3,4-dioxo-cyclobut-1-enylamino]-2-hydroxy-N-methoxy-N-methyl-benzenesulfonamide] | – | – | – | 2.4 | 2.8 | – | – | – | < 5 |
